Measured values reported in the supplement of paper PMC4862054.

What follows are compounds tested on HCC1143 (assay: normalised response (% of control), CellTiter-Glo; higher = more viable cells (100 = DMSO, 0 = benzethonium chloride kill control)). Details: incubation time: 72 h.
How it was run: (§1)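 Normalised signals at single concentrations make up the values. They come from breast cancer cell lines seeded (20 µl suspension) into 384-well plates with compound at 5 concentrations in 10-fold steps over a compound-specific 10,000-fold range, incubated 72 h, and read for CellTox Green fluorescence then CellTiter-Glo luminescence. Each plate was normalised to 0.1 % DMSO (100) and a positive kill control (0).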
With `C[C@]12C=CC(=O)C=C1CC[C@@H]1[C@@H]2[C@@H](O)C[C@@]2(C)[C@H]1CC[C@]2(O)C(=O)CO` [Prednisolone] (10 nM) the normalised response was 100%. For `Cn1cc(CNCC2CCN(c3ncc(C(=O)NO)cn3)CC2)c2ccccc21` [Quisinostat] (0.1 nM), the normalised response was 105%. With `Cn1cc(CNCC2CCN(c3ncc(C(=O)NO)cn3)CC2)c2ccccc21` [Quisinostat] (1 nM) the normalised response was 103%.

These compounds were tested on MDA-MB-453 in the same assay as above. Details: incubation time: 72 h.
How it was run: as §1
Work on `Cc1c(CN2CCN(C(=O)[C@H](C)O)CC2)sc2c(N3CCOCC3)nc(-c3cnc(N)nc3)nc12` [GDC-0980] (1 nM) yielded a normalised response of 94.9%. In the case of `Cc1c(CN2CCN(C(=O)[C@H](C)O)CC2)sc2c(N3CCOCC3)nc(-c3cnc(N)nc3)nc12` [GDC-0980] (10 nM), the normalised response is reported as 97.5%. `Cc1cccc(-c2nn3c(c2-c2ccnc4ccc(C(N)=O)cc24)CCC3)n1` [Galunisertib] (0.1 nM) gave a normalised response of 107%. With `Nc1cccc2c1CN(C1CCC(=O)NC1=O)C2=O` (stereo not given) [Lenalidomide] (1 nM) the normalised response was 112%. In the case of `Nc1cccc2c1CN(C1CCC(=O)NC1=O)C2=O` (stereo not given) [Lenalidomide] (10 nM), the normalised response is reported as 104%. In the case of `C[C@]12O[C@H](C[C@]1(O)CO)n1c3ccccc3c3c4c(c5c6ccccc6n2c5c31)CNC4=O` [Lestaurtinib] (0.1 nM), the normalised response is reported as 100%. Compound `O=C1c2c(O)ccc(O)c2C(=O)c2c(NCCNCCO)ccc(NCCNCCO)c21` [Mitoxantrone] (0.1 nM) has a normalised response of 99.3%. Compound `O=C1c2c(O)ccc(O)c2C(=O)c2c(NCCNCCO)ccc(NCCNCCO)c21` [Mitoxantrone] (1 nM) has a normalised response of 103%. With `Nc1ccccc1NC(=O)c1ccc(CNc2nccc(-c3cccnc3)n2)cc1` [Mocetinostat] (1 nM) the normalised response was 114%. `COc1nc(N)nc2c1ncn2[C@@H]1O[C@H](CO)[C@@H](O)[C@@H]1O` [Nelarabine] (1 nM) was tested, and the normalised response was 90.4%. `COc1nc(N)nc2c1ncn2[C@@H]1O[C@H](CO)[C@@H](O)[C@@H]1O` [Nelarabine] (10 nM) was tested, and the normalised response was 88.1%. For `Cc1ccc(Nc2nccc(N(C)c3ccc4c(C)n(C)nc4c3)n2)cc1S(N)(=O)=O` [Pazopanib] (1 nM), the normalised response was 125%. `CS(=O)(=O)N1CCN(Cc2cc3nc(-c4cccc5[nH]ncc45)nc(N4CCOCC4)c3s2)CC1` [Pictilisib] (10 nM) was tested, and the normalised response was 101%. `O=C(NC[C@H](O)CO)c1ccncc1Nc1ccc(I)cc1F` [Pimasertib] (1 nM) gave a normalised response of 105%. Compound `O=C(CCBr)N1CCN(C(=O)CCBr)CC1` [Pipobroman] (1 nM) has a normalised response of 98.1%. `O=C(CCBr)N1CCN(C(=O)CCBr)CC1` [Pipobroman] (10 nM) gave a normalised response of 104%. `c1cc(CN2CCCNCCNCCCNCC2)ccc1CN1CCCNCCNCCCNCC1` [Plerixafor] (1 nM) was tested, and the normalised response was 87.1%. `C[C@]12C=CC(=O)C=C1CC[C@@H]1[C@@H]2[C@@H](O)C[C@@]2(C)[C@H]1CC[C@]2(O)C(=O)CO` [Prednisolone] (1 nM) was tested, and the normalised response was 112%. Compound `C[C@]12C=CC(=O)C=C1CC[C@@H]1[C@@H]2[C@@H](O)C[C@@]2(C)[C@H]1CC[C@]2(O)C(=O)CO` [Prednisolone] (10 nM) has a normalised response of 106%. Compound `Cn1cc(CNCC2CCN(c3ncc(C(=O)NO)cn3)CC2)c2ccccc21` [Quisinostat] (0.1 nM) has a normalised response of 109%. Work on `Cn1cc(CNCC2CCN(c3ncc(C(=O)NO)cn3)CC2)c2ccccc21` [Quisinostat] (1 nM) yielded a normalised response of 105%.

The compounds below were run on CAL-120 in the same assay as above. Details: incubation time: 72 h.
How it was run: as §1
Compound `Cc1c(CN2CCN(C(=O)[C@H](C)O)CC2)sc2c(N3CCOCC3)nc(-c3cnc(N)nc3)nc12` [GDC-0980] (1 nM) has a normalised response of 104%. For `Cc1c(CN2CCN(C(=O)[C@H](C)O)CC2)sc2c(N3CCOCC3)nc(-c3cnc(N)nc3)nc12` [GDC-0980] (10 nM), the normalised response was 97.4%. Compound `Cc1cccc(-c2nn3c(c2-c2ccnc4ccc(C(N)=O)cc24)CCC3)n1` [Galunisertib] (0.1 nM) has a normalised response of 104%. Compound `Nc1cccc2c1CN(C1CCC(=O)NC1=O)C2=O` (stereo not given) [Lenalidomide] (1 nM) has a normalised response of 94.9%. Work on `Nc1cccc2c1CN(C1CCC(=O)NC1=O)C2=O` (stereo not given) [Lenalidomide] (10 nM) yielded a normalised response of 92.6%. `C[C@]12O[C@H](C[C@]1(O)CO)n1c3ccccc3c3c4c(c5c6ccccc6n2c5c31)CNC4=O` [Lestaurtinib] (0.1 nM) was tested, and the normalised response was 103%. `O=C1c2c(O)ccc(O)c2C(=O)c2c(NCCNCCO)ccc(NCCNCCO)c21` [Mitoxantrone] (0.1 nM) showed a normalised response of 103%. For `O=C1c2c(O)ccc(O)c2C(=O)c2c(NCCNCCO)ccc(NCCNCCO)c21` [Mitoxantrone] (1 nM), the normalised response was 96.9%. For `Nc1ccccc1NC(=O)c1ccc(CNc2nccc(-c3cccnc3)n2)cc1` [Mocetinostat] (1 nM), the normalised response was 102%. `COc1nc(N)nc2c1ncn2[C@@H]1O[C@H](CO)[C@@H](O)[C@@H]1O` [Nelarabine] (1 nM) gave a normalised response of 94.5%. Work on `COc1nc(N)nc2c1ncn2[C@@H]1O[C@H](CO)[C@@H](O)[C@@H]1O` [Nelarabine] (10 nM) yielded a normalised response of 90.8%. Work on `Cc1ccc(Nc2nccc(N(C)c3ccc4c(C)n(C)nc4c3)n2)cc1S(N)(=O)=O` [Pazopanib] (1 nM) yielded a normalised response of 95.4%. In the case of `CS(=O)(=O)N1CCN(Cc2cc3nc(-c4cccc5[nH]ncc45)nc(N4CCOCC4)c3s2)CC1` [Pictilisib] (10 nM), the normalised response is reported as 91.4%. `O=C(NC[C@H](O)CO)c1ccncc1Nc1ccc(I)cc1F` [Pimasertib] (1 nM) showed a normalised response of 99.8%. For `O=C(CCBr)N1CCN(C(=O)CCBr)CC1` [Pipobroman] (1 nM), the normalised response was 99.4%. With `O=C(CCBr)N1CCN(C(=O)CCBr)CC1` [Pipobroman] (10 nM) the normalised response was 99.5%. `c1cc(CN2CCCNCCNCCCNCC2)ccc1CN1CCCNCCNCCCNCC1` [Plerixafor] (1 nM) was tested, and the normalised response was 102%. Work on `C[C@]12C=CC(=O)C=C1CC[C@@H]1[C@@H]2[C@@H](O)C[C@@]2(C)[C@H]1CC[C@]2(O)C(=O)CO` [Prednisolone] (1 nM) yielded a normalised response of 110%. Work on `C[C@]12C=CC(=O)C=C1CC[C@@H]1[C@@H]2[C@@H](O)C[C@@]2(C)[C@H]1CC[C@]2(O)C(=O)CO` [Prednisolone] (10 nM) yielded a normalised response of 103%. Compound `Cn1cc(CNCC2CCN(c3ncc(C(=O)NO)cn3)CC2)c2ccccc21` [Quisinostat] (0.1 nM) has a normalised response of 103%. Compound `Cn1cc(CNCC2CCN(c3ncc(C(=O)NO)cn3)CC2)c2ccccc21` [Quisinostat] (1 nM) has a normalised response of 96.8%.

Each compound was assayed on MDA-MB-436 in the same assay as above. Details: incubation time: 72 h.
How it was run: as §1
`Cc1c(CN2CCN(C(=O)[C@H](C)O)CC2)sc2c(N3CCOCC3)nc(-c3cnc(N)nc3)nc12` [GDC-0980] (1 nM) showed a normalised response of 101%. Work on `Cc1c(CN2CCN(C(=O)[C@H](C)O)CC2)sc2c(N3CCOCC3)nc(-c3cnc(N)nc3)nc12` [GDC-0980] (10 nM) yielded a normalised response of 104%. Work on `Cc1cccc(-c2nn3c(c2-c2ccnc4ccc(C(N)=O)cc24)CCC3)n1` [Galunisertib] (0.1 nM) yielded a normalised response of 104%. For `Nc1cccc2c1CN(C1CCC(=O)NC1=O)C2=O` (stereo not given) [Lenalidomide] (1 nM), the normalised response was 94%. For `Nc1cccc2c1CN(C1CCC(=O)NC1=O)C2=O` (stereo not given) [Lenalidomide] (10 nM), the normalised response was 91.9%.
